The test system of this test is CEM cells HIV-1 protection, formazan growth assay. The test is described as follows: NCI AIDS Antiviral Assay. As to conditions: for IC50: measured here: growth of uninfected CEM cells. Summed up:
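Human CEM cells, uninfected and HIV-1-infected, exposed to five drug concentrations; growth measured by soluble formazan assay and scored as percent protection from infection, with protecting compounds retested.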

Calls of active or inactive are those of the source.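 How the source made its calls: active means compounds giving half or more protection of infected cells from virus-caused growth loss, again on retest; inactive means the rest.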

For orientation: EC50 means the concentration at which the effect is half-maximal. The IC50 is the midpoint of a concentration-inhibition curve.

For the compound `Cn1nc(-c2ccccc2)c2c(/C=C/c3ccc(F)cc3)onc2c1=O`, the EC50 is over 38.9 µM and the IC50 was over 38.9 µM.

On to `O=C(Cn1ccnc1[N+](=O)[O-])c1ccc(F)cc1`, for which the EC50 was over 724 µM and the IC50 turned out to be 339 µM.

Turning to `O=C1CC(c2ccccc2)S(=O)(=O)c2ccccc2N1` (stereo not drawn), the EC50 is over 200 µM and the IC50 is over 200 µM.

`COc1ccc(OC)c(N=Nc2c(O)c3ccccc3[nH]c2=O)c1`: the EC50 is 47.9 µM and the IC50 is over 200 µM.

For `C/C(CC1(O)C(=O)Nc2ccccc21)=N\O` (stereo not drawn), the EC50 was over 200 µM and the IC50 was over 200 µM.

Regarding `COc1ccc(CN(Cc2ccccc2)c2ncccn2)cc1`, the EC50 is over 17 µM and the IC50 was over 17 µM.

On to `COc1ccc(CSc2nc3ccccc3nc2-c2cccs2)cc1`, for which the EC50 was over 3.98 µM and the IC50 is over 3.98 µM.

For the compound `CC1C=C(CCCCCCCCCCCC[C@@H](O)[C@@H]2CC[C@@H]([C@@H]3CC[C@@H](C(O)CCCCCCCCCCCCC4=C[C@H](C)OC4=O)O3)O2)C(=O)O1` (stereo partly drawn), the EC50 is over 200 µM and the IC50 was 0.204 µM.

Regarding `CCCCN(CCCC)P(=S)(OCC)OCC`, the EC50 is over 200 µM and the IC50 was over 200 µM.

As to `CCn1c(SCC(=O)NNC(=S)NC)nc2ccccc2c1=O`, the EC50 was over 200 µM and the IC50 is over 200 µM.

For `C(/C=C\c1ccccc1)=NCCCCCCN=C/C=C/c1ccccc1`, the EC50 is over 20 µM and the IC50 was 12.3 µM.

For the compound `N.N.NC(CS)C(=O)[O-].NC(CS)C(=O)[O-].[Pt+4]` (stereo not drawn), the EC50 is over 3310 µM and the IC50 is over 3310 µM.

Regarding `COC(=S)SSC(=S)NCCNC(=S)SSC(=S)OC`, the EC50 was over 200 µM and the IC50 was found to be 9.55 µM.

As to `CC(=O)OC1CCC2(C)C(=CCC3C2CCC2(C)C3CC3N(c4ccccc4Cl)C32C#N)C1` (stereo not drawn), the EC50 is over 21.4 µM and the IC50 was over 21.4 µM.

For the compound `Cn1c(=O)c2nc(NCCO)cnc2n(C)c1=O`, the EC50 is over 200 µM and the IC50 came to 85.1 µM.

`Cc1cc(C)c(C(=O)c2ccccc2C(=O)O)c(C)c1` registered an EC50 of over 200 µM and an IC50 of over 200 µM.

With `COc1ccc2[nH]c3c(C)c4cc[n+](C)cc4c(C)c3c2c1`, the EC50 is over 20 µM and the IC50 was determined as 0.417 µM.

With `Cc1ccc(NC(=O)C(=O)C(C(=O)c2ccc3ccccc3c2)C2OC(=O)c3ccccc32)c(C)c1` (stereo not drawn), the EC50 was over 75.9 µM and the IC50 came to 21.4 µM.

In the case of `C[C@]12C[C@H](c3ccccc3)Nc3ccccc3N1C(c1ccccc1)=NO2`, the EC50 is over 200 µM and the IC50 came to 36.3 µM.

For `O=[N+]([O-])C(C=Nc1ccccc1)C=Nc1ccccc1` (stereo not drawn), the EC50 was over 200 µM and the IC50 amounted to 107 µM.

Regarding `Cc1nc2ccccc2cc1C[N+]12CN3CN(CN(C3)C1)C2`, the result was inactive.

Take `CC(=O)Nc1ccc(OC(C)(C)C)cc1`: the EC50 is over 1200 µM and the IC50 was over 1200 µM.

Take `COC(=O)c1c(C)cccc1CC1Cc2c(C)cccc2C1=O` (stereo not drawn): the EC50 is over 200 µM and the IC50 came to 41.7 µM.

Regarding `O=C(c1ccccc1)N1C(=O)c2ccccc21`, the EC50 was over 162 µM and the IC50 was 49 µM.

Turning to `CNc1ncnc2nc(C)c(C)nc12`, the EC50 was over 200 µM and the IC50 is over 200 µM.

On to `N#C/C(=C\c1ccc(Cl)cc1)c1ccccc1[N+](=O)[O-]`, for which the EC50 was over 200 µM and the IC50 is 120 µM.

`CCC(=O)CCC1=Nc2nnc(CCCCc3nnc4n3C(=O)C(CCC(=O)CC)=N4)n2C1=O`: the EC50 was 427 µM and the IC50 came to 537 µM.

Take `CN(C)CC1CCCC(CN(C)C)C1=NO` (stereo not drawn): the outcome was inactive.

With `CC12CCCCC1C(=O)C2(Cl)Cl` (stereo not drawn), the outcome was inactive.

Take `CCCCN(CCCC)C(=O)C(=O)C(C(=O)c1ccc(OC)cc1)c1ccc(OC)cc1` (stereo not drawn): the EC50 is over 11.7 µM and the IC50 is over 11.7 µM.

`O=C(OCCN=c1c2ccccc2ccc2ccccc12)c1ccccc1`: the EC50 is over 200 µM and the IC50 was found to be 120 µM.

Turning to `COc1ccc2nc3c([N+](=O)[O-])ccc(NCCCN(C)C)c3c(NCCCN(C)C)c2c1`, the EC50 was over 200 µM and the IC50 stood at 0.229 µM.

On to `COCCCC(=O)NC(c1ccccc1)(c1ccccc1)c1ccccc1`, for which the EC50 was over 200 µM and the IC50 was over 200 µM.

Consider `Cc1cnc2c(c1)C(=O)N(c1ccc(Br)cc1)S2(=O)=O`, for which the EC50 is over 200 µM and the IC50 came out at 58.9 µM.

Consider `Cc1[nH]n(-c2nc(O)c(C)c(=O)[nH]2)c(=O)c1CCO`, for which the EC50 is over 200 µM and the IC50 is over 200 µM.

On to `NC(=O)N/N=C1/CCCC/C1=C\c1ccccc1`, for which the result was inactive.

With `COC(=O)CN(CC(=O)NCCCBr)C1CCCCC1N(CC(=O)OC)CC(=O)OC` (stereo not drawn), the EC50 was over 200 µM and the IC50 is over 200 µM.

Take `C=C1CC[C@@H](O)[C@]2(C)CC[C@@H](C(C)(C)O)[C@@H](OC3OC(CO)C(O)C(O)C3O)C12` (stereo partly drawn): the EC50 is over 288 µM and the IC50 is over 288 µM.

Turning to `CCOC(=O)C1=C(C)NC(C)=C(C(=O)OCC)C1c1ccc([N+](=O)[O-])s1`, the result was inactive.

Regarding `CN1CCC2CC1c1ccn(C)c1C2=O` (stereo not drawn), the EC50 is over 1230 µM and the IC50 is over 1230 µM.

In the case of `CC1S/C(=N\N=C\c2ccc(Cl)cc2)N=C1c1c(O)c2ccccc2oc1=O` (stereo not drawn), the EC50 was over 200 µM and the half-maximal inhibitory concentration (IC50) turned out to be 36.3 µM.

Take `C=CCN(CC=C)c1nc(Cl)nc(Cl)n1`: the EC50 was over 200 µM and the IC50 was over 200 µM.

Consider `CC(C)(C)OC(=O)NCCc1ccc(N)cc1`, for which the EC50 was over 200 µM and the IC50 came out at 158 µM.

Consider `CC(=O)C1C(=O)C(=O)N(c2cccc(C)c2C)C1=O` (stereo not drawn), for which the EC50 was over 200 µM and the IC50 was over 200 µM.

Turning to `CC(=O)Nc1ccccc1C[P+](c1ccccc1)(c1ccccc1)c1ccccc1`, the EC50 is over 200 µM and the IC50 was over 200 µM.

With `C/C(=N\NC(N)=O)c1ccc(Cl)cc1`, the EC50 was over 123 µM and the IC50 was over 123 µM.

`COC(=O)N/N=C(\C(=O)Nc1cccc([N+](=O)[O-])c1)c1nc2ccc([N+](=O)[O-])cc2[nH]c1=O`: the EC50 was over 148 µM and the IC50 was over 148 µM.

As for `CCN(CC)CCN1C(=O)C(=O)N(c2cccc3ccccc23)C1=O`, the EC50 is over 200 µM and the IC50 was over 200 µM.

As for `CCc1[nH]nc(-c2ccc(OC)cc2)c1-c1ccccc1O`, the EC50 is over 200 µM and the IC50 came out at 20.9 µM.

Turning to `Cn1c(=O)c2c(nc(Nc3ccc(Cl)cc3)n3c(=O)n(-c4ccccc4)c(=O)n23)n(C)c1=O`, the EC50 was over 200 µM and the IC50 was determined as 145 µM.

For `COC(OC)c1cccnc1C`, the EC50 was over 1480 µM and the IC50 came to 1050 µM.

Turning to `COC(=O)C1=C(C(=O)OC)P2(C)(C)OC(c3ccccc3)CN2C1(c1ccccc1)c1ccccc1` (stereo not drawn), the EC50 is over 36.3 µM and the IC50 came out at 4.79 µM.

Regarding `NC1=NS(=O)(=O)Nc2nc(-c3ccc(Cl)cc3)[nH]c21`, the EC50 is over 200 µM and the 50% inhibitory concentration (IC50) is over 200 µM.

As for `CC(C)(C)NNC(=O)/C(=C/c1ccc(Oc2ccc(Cl)c(Cl)c2)cc1)NC(=O)c1ccccc1`, the EC50 was over 5.5 µM and the IC50 was over 5.5 µM.

With `O=C(c1cccs1)N(C(=S)OCc1ccccn1)c1ccccc1`, the EC50 was over 200 µM and the IC50 was 79.4 µM.

For the compound `CCOC(=O)c1c(-c2cccc3ccccc23)c(C#N)c(=S)n(C2OC(COC(C)=O)C(OC(C)=O)C(OC(C)=O)C2OC(C)=O)c1C` (stereo not drawn), the EC50 is over 200 µM and the IC50 is 7.76 µM.

Consider `c1ccc2c(c1)Sc1nccc3ccnc-2c13`, for which the EC50 was over 200 µM and the IC50 turned out to be 13.8 µM.

As for `O=[N+]([O-])c1ccc(NC(=S)Nc2ccccn2)cc1`, the EC50 was over 200 µM and the IC50 worked out at 19.1 µM.

Regarding `O=C(/C=C/c1ccccc1)CC1OC(=O)c2ccccc21` (stereo not drawn), the EC50 is over 245 µM and the IC50 is 129 µM.

In the case of `CC1=CC2CCC1(C)C/C2=C(/C)OC=O` (stereo not drawn), the outcome was inactive.

Consider `CC(=O)N1C(=N)SCC1C(N)=O` (stereo not drawn), for which the EC50 is 427 µM and the IC50 amounted to 479 µM.

Regarding `CN(C)C(=Nc1ccc(NC(=O)c2ccc(C(=O)Nc3ccc(N=C(Nc4ccccc4)N(C)C)cc3)cc2)cc1)Nc1ccccc1`, the outcome was inactive.

Consider `COC(=O)C1(NC(=O)C(N)CC(=O)O)C(C)C1C` (stereo not drawn), for which the EC50 was over 200 µM and the IC50 is over 200 µM.

Turning to `S=c1[nH]nc(Cc2ccccc2)c(=S)[nH]1`, the result was inactive.

With `CC12Nc3ccccc3C1=C(c1ccccc1)CC1C(=O)OC(=O)C12` (stereo not drawn), the EC50 is over 15.8 µM and the IC50 is over 15.8 µM.

For the compound `CN(NC(=O)/C(=C/c1ccc(Cl)cc1)NC(=O)c1ccccc1)c1cn[nH]c(=O)c1Cl`, the EC50 was over 200 µM and the IC50 turned out to be 6.92 µM.

`[CH3][Sn]1([CH3])[O]CC(COc2cc(Cl)c(Cl)cc2Cl)[O]1` (stereo not drawn): the EC50 is over 24 µM and the IC50 stood at 15.5 µM.

`O=C(O)c1cc(Cc2cc(C(=O)O)c(O)c(C(=O)c3ccc(O)c(C(=O)O)c3)c2)ccc1O`: the EC50 was 537 µM and the half-inhibitory concentration (IC50) was determined as 832 µM.

Turning to `COC1(OC)CC2C(=O)CCCC21OC` (stereo not drawn), the EC50 was over 603 µM and the IC50 was over 603 µM.

For `Cc1ccc(S(=O)(=O)NCCCN(CCCNS(=O)(=O)c2ccc(C)cc2)S(=O)(=O)c2ccc(C)cc2)cc1`, the EC50 is over 2.45 µM and the IC50 is over 2.45 µM.

On to `Cc1ccc(NC(=O)CC(=O)n2nc(C)c(N=Nc3cccc(C)c3)c2C)cc1`, for which the EC50 was over 200 µM and the IC50 was over 200 µM.

`O=C(Cc1cccs1)N[C@@H]1C(=O)N2C(C(=O)OC(c3ccccc3)c3ccccc3)=C(CO)CS[C@H]12`: the EC50 is over 200 µM and the concentration for half-maximal inhibition (IC50) was 195 µM.

For `CCOC(=O)c1cn(C)c2c1C(=O)C(C(=O)OCC)CCN2C(=O)OCC` (stereo not drawn), the EC50 was over 240 µM and the IC50 was over 240 µM.

Values taken from PubChem BioAssay AID179 (DTP/NCI, 2004).
